Reference: patent publication US8883759B2, “Anti-tumor effect potentiator” (Taiho Pharmaceutical Co., Ltd., priority 2009, dated 2014)

Tests used:
human dUTPase = human dUTPase (Homo sapiens (Human), UniProt P33316); test: Human dUTPase inhibitory effect ([5-3H]dUMP production from [5-3H]dUTP); format: biochemical
Method: The inhibitory activity of these compounds of the present invention against human dUTPase was determined by measuring the production of [5-^3H]deoxyuridine monophosphate (hereinafter, referred to as [5-^3H]dUMP) from [5-^3H]deoxyuridine triphosphate (hereinafter, referred to as [5-^3H]dUTP) according to a method shown below.
Specifically, 0.2 mL in total of a solution containing 0.02 mL of 1 μM dUTP (including 588 Bq/mL [5-^3H]dUTP), 0.05 mL of a 0.2 M Tris buffer solution (pH 7.4), 0.05 mL of 16 mM magnesium chloride, 0.02 mL of 20 mM 2-mercaptoethanol, 0.02 mL of a 1% aqueous solution of fetal bovine serum-derived albumin, 0.02 mL of varying concentrations of test compound solutions or pure water as a control, and 0.02 mL of a solution of human dUTPase, which is expressed in E. coli and then purified, was incubated at 37° C. for 15 minutes. After the incubation, the solution was heated at 100° C. for 1 minute to terminate the reaction, followed by centrifugation at 15000 rpm for 2 minutes. An aliquot (150 μL) of the supernatant obtained by centrifugation was analyzed using an Atlantis dC18 column (manufactured by Waters Corp., 4.6×250 mm) and a high-performance liquid chromatograph (manufactured by Shimadzu Corp., Prominence). […]
The inhibitory activity of the test compound was determined according to the formula shown below. […]

[1] = system: human breast cancer cell line MX-1; test: Enhancing activity for anti-tumor effect of TS-1 in nude mice with transplanted MX-1 (Test Example 2); format: in vivo, BALB/cA Jcl-nu mice; conditions: 200 mg/kg/day test drug + TS-1 8.3 mg/kg/day, oral, 14 days; MX-1 in nude mice; T/C on day 15 (FIG. 1)
Method: A human breast cancer cell line MX-1 was transplanted into the right-sided chest of 5- to 6-week-old male BALB/cA Jcl-nu mice. After transplantation, the major axis (mm) and minor axis (mm) of the tumor were measured, and the tumor volume (TV) was estimated by calculation. Using MiSTAT group separation program, the mice were then divided into individual groups so that the mean TV of each group is to be equal. The date at which mice were divided into the groups (n=5) was defined as day 0.
A test solution for tegafur/gimeracil/oteracil potassium (TS-1, manufactured by Taiho Pharmaceutical Co., Ltd.) single administration group, containing 0.5% hydroxypropylmethyl cellulose, 2.5% dimethylacetamide, 2.5% Tween 80, and 10% Cremophor as final concentrations, was prepared, provided at 8.3 mg/kg/day. The dose of TS-1 was represented by the amount of tegafur (FT). […]
TV on day 15 was measured, and relative tumor volume (RTV) was calculated. Then, T/C (%) was calculated according to a formula described below, and an anti-tumor effect was evaluated. […]

Chain of human dUTPase (P33316 94-252): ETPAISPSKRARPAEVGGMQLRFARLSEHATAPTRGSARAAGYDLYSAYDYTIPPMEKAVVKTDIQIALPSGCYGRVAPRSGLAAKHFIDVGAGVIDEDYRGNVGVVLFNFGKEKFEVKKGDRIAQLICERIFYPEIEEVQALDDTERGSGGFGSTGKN

Row | dUTPase inhibitory activity (in words) (human dUTPase; human dUTPase) | IC50 (human dUTPase; concentration inhibiting 50% of [5-3H]dUMP production by human dUTPase, 37° C., 15 minutes) [nM] | Compound | enhancing activity for anti-tumor effect of TS-1 [1]
1 | strong |  | O=c1ccn(COCCCC2(NS(=O)(=O)c3cccc(OCC4CC4)c3)CC2)c(=O)[nH]1 [Comparative Compound 1, 3-(cyclopropylmethoxy)-N-(1-(3-((2,4-dioxo-3,4-dihydropyrimidin-1(2H)-yl)methoxy)propyl)cyclopropyl)benzenesulfonamide] | not observed
2 |  | 610 | CC[C@@H](NS(=O)(=O)CCCn1ccc(=O)[nH]c1=O)c1cccc(OCC2CC2)c1 [Compound 19, (R)—N-(1-(3-(cyclopropylmethoxy)phenyl)propyl)-3-(2,4-dioxo-3,4-dihydropyrimidin-1(2H)-yl)propane-1-sulfonamide] | 
